This note sets out measurements from patent publication US20210070748A1, “INHIBITORS OF BRUTONS TYROSINE KINASE” (Pharmacyclics LLC, priority 2015, published 2021).

Structures are written as SMILES.

As usually defined, the IC50 is the concentration needed to halve the response being measured.

What all share (assay type): biochemical
Experiment [1] concerns the target EGFR (Homo sapiens, UniProt P00533). In words: Inhibition of a panel of kinases, in vitro HotSpot kinase assay: EGFR. Particulars: D-compounds panel data; 1 μM ATP. As for the experimental part: (§1) The degree of inhibition of a panel of kinases is determined using the in vitro HotSpot kinase assay (purified enzymes, ^33P-ATP, an appropriate substrate and 1 μM ATP).

The target of experiment [2] is T1, ITK (Homo sapiens, UniProt Q08881).
T1 sequence (Q08881 1-620): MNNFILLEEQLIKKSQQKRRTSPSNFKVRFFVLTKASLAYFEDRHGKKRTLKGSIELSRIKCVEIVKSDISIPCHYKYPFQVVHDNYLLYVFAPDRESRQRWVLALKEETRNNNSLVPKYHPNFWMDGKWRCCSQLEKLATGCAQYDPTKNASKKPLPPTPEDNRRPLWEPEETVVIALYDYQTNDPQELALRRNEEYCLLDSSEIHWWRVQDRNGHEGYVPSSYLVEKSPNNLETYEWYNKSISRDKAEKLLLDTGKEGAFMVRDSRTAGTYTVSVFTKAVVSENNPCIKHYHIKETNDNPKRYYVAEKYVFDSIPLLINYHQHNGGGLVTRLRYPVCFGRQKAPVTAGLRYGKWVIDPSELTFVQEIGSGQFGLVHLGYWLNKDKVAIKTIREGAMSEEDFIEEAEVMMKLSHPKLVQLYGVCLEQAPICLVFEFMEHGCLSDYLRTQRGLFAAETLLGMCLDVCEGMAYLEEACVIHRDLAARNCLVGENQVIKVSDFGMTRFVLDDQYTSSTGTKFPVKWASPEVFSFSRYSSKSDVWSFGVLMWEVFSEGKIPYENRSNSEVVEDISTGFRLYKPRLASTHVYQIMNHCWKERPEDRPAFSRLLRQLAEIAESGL
The experiment is described as follows: Inhibition of a panel of kinases, in vitro HotSpot kinase assay: ITK. To be noted: D-compounds panel data; 1 μM ATP. As to the method: as §1

Experiment [3] concerns the target T2, JAK3 (Homo sapiens, UniProt P52333).
T2 sequence (P52333 1-1124): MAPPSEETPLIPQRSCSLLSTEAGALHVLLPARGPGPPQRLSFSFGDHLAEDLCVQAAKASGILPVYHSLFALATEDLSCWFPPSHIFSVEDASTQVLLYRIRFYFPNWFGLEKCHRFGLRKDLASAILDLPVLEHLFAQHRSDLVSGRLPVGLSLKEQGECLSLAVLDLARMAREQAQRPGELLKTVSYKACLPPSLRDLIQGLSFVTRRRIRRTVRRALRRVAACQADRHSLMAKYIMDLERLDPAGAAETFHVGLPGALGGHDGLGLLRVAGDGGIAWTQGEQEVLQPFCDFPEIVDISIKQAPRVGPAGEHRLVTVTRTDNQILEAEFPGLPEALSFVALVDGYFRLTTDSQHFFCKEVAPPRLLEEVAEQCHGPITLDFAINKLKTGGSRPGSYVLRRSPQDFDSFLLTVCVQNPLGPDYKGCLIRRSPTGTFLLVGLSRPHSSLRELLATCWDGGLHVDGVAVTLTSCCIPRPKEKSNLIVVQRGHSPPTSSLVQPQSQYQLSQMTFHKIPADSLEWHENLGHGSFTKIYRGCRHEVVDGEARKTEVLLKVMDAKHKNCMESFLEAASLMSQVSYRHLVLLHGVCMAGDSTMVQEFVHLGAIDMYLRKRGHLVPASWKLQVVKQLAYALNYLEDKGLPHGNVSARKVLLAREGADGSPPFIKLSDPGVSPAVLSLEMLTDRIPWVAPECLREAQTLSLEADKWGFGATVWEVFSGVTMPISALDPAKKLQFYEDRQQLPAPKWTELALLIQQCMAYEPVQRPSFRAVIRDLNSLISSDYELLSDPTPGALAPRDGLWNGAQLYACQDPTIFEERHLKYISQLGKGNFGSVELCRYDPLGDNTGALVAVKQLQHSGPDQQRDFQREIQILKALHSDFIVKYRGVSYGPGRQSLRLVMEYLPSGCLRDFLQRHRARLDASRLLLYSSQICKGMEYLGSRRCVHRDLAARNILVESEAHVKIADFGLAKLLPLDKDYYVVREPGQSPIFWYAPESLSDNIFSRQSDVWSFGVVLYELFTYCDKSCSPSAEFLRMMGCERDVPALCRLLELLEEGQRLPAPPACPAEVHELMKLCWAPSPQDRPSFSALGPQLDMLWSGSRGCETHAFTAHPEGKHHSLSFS
The experiment is described as follows: Inhibition of a panel of kinases, in vitro HotSpot kinase assay: JAK3. Particulars: D-compounds panel data; 1 μM ATP; read-out: IC50 JAK3.

Experiment [4] has as its target SRC (Homo sapiens, UniProt P12931). In words: Inhibition of a panel of kinases, in vitro HotSpot kinase assay: SRC. Particulars: D-compounds panel data; 1 μM ATP. As to the method: as §1
Experiment [5] deals with LCK (Homo sapiens, UniProt P06239). In words: Inhibition of a panel of kinases, in vitro HotSpot kinase assay: LCK. Particulars: D-compounds panel data; 1 μM ATP; read-out: IC50 LCK.
In experiment [6] the target is T3, TEC (Homo sapiens, UniProt P42680).
T3 sequence (P42680 1-631): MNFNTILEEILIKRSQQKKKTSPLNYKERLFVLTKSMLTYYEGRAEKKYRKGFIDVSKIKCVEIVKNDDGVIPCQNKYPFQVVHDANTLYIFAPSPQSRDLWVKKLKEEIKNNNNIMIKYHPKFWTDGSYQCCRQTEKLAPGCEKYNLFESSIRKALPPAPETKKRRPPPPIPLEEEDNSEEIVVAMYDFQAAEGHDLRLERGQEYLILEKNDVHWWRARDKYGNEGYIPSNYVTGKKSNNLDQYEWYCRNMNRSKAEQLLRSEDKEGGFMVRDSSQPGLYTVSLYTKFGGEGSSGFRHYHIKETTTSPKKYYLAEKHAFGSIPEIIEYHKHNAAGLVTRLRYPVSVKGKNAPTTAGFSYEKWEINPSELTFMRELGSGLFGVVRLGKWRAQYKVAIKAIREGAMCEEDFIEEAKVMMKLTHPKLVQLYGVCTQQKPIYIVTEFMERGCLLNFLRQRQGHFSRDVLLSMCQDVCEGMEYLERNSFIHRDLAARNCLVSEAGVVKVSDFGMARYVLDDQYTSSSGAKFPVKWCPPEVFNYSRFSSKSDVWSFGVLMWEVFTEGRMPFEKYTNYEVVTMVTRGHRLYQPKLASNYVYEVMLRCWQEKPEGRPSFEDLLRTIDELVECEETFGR
The experiment is described as follows: Inhibition of a panel of kinases, in vitro HotSpot kinase assay: TEC. To be noted: D-compounds panel data; 1 μM ATP. As to the method:
as §1

Sequence of LCK (P06239 whole entry): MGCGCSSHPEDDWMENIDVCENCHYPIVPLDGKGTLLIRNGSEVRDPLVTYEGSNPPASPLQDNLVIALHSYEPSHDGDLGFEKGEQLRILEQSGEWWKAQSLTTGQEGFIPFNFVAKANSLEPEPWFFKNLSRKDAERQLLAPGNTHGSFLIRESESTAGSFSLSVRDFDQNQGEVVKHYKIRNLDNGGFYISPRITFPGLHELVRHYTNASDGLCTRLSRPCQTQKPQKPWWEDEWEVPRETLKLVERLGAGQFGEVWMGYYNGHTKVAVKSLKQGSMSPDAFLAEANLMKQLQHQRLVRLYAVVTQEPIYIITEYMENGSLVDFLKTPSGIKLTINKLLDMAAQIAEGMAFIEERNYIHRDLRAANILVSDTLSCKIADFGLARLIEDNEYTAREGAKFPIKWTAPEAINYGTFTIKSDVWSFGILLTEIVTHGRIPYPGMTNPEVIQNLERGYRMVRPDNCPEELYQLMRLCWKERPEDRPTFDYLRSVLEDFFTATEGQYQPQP
Sequence of EGFR (P00533 25-1210): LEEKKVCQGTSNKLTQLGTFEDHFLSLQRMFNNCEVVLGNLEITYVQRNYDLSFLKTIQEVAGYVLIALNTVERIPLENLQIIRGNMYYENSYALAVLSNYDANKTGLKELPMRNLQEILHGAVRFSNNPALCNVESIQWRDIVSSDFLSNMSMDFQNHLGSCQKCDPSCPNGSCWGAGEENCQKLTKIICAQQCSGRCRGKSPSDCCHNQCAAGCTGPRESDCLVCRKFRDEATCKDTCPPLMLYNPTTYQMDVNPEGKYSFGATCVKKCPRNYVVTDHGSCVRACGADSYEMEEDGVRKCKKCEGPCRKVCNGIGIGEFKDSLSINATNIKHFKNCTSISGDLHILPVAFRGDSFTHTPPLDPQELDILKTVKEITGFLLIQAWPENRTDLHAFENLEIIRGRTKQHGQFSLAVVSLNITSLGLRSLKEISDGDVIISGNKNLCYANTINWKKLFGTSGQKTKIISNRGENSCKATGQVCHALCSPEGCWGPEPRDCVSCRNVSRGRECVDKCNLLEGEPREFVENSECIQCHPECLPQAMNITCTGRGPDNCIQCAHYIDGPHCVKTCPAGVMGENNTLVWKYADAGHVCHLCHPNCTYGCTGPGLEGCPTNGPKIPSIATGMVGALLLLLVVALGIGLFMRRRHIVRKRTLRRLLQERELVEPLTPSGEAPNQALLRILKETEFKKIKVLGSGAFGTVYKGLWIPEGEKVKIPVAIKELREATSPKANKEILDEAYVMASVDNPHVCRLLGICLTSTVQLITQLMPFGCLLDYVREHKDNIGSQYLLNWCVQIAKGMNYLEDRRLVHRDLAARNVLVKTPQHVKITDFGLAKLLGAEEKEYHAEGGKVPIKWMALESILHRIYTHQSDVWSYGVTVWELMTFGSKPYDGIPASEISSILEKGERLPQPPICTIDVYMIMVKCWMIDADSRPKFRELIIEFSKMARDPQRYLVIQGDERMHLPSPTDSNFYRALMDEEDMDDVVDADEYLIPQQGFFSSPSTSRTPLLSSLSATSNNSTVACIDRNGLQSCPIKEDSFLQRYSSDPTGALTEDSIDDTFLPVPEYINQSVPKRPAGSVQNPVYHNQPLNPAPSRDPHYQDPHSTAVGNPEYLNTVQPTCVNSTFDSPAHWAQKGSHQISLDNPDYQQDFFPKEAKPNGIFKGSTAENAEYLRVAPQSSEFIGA
Sequence of SRC (P12931 whole entry): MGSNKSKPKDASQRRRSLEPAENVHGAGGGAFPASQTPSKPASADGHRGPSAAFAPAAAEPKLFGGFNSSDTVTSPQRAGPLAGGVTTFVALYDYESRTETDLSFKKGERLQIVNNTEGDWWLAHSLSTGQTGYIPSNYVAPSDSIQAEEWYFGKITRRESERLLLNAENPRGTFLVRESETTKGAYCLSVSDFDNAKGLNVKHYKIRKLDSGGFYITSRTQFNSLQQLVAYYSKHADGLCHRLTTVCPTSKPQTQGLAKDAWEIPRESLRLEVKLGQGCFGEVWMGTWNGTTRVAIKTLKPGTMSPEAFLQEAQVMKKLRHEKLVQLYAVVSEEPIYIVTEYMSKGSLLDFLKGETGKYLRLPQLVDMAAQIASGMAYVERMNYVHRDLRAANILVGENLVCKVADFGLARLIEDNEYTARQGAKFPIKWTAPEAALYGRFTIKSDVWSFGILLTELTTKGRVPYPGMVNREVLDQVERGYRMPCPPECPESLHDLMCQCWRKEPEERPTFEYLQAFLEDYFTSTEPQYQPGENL

For the compound `C[C@@H]1[C@H](NC(=O)c2ccc(C3CC3)cn2)CCCN1c1cnc(C(N)=O)c(Nc2cnn(C)c2)n1` [Example D-21, 5-[(2R,3R)-3-(5-cyclopropylpyridine-2-amido)-2-methylpiperidin-1-yl]-3-[(1-methyl-1H-pyrazol-4-yl)amino]pyrazine-2-carboxamide], the IC50 lay within 1000 to 10000 nM in experiment [1]; 100 to 1000 nM in experiment [2]; 1000 to 10000 nM in experiment [3]; 10 to 100 nM in experiment [4]; 100 to 1000 nM in experiment [5]; 10 to 100 nM in experiment [6].

`C[C@@H]1[C@H](NC(=O)c2ccc3nccn3c2)CCCN1c1cnc(C(N)=O)c(Nc2cnn(C)c2)n1` [Example D-266, 5-[(2R,3R)-3-(imidazo[1,2-a]pyridine-6-amido)-2-methylpiperidin-1-yl]-3-[(1-methyl-1H-pyrazol-4-yl)amino]pyrazine-2-carboxamide]: the IC50 is 1000 to 10000 nM in experiment [1]; 10 to 100 nM in experiment [2]; 1000 to 10000 nM in experiment [3]; 10 to 100 nM in experiment [4]; 10 to 100 nM in experiment [5]; not above 10 nM in experiment [6].

`C[C@@H]1[C@H](NC(=O)c2ccc(C3CC3)cc2)CCCN1c1cnc(C(N)=O)c(Nc2cnn(C3CCN(CC(F)(F)F)CC3)c2)n1` [Example D-293, 5-[(2R,3R)-3-(4-cyclopropylbenzamido)-2-methylpiperidin-1-yl]-3-({1-[1-(2,2,2-trifluoroethyl)piperidin-4-yl]-1H-pyrazol-4-yl}amino)pyrazine-2-carboxamide]: the IC50 was more than 10000 nM in experiment [1]; 1000 to 10000 nM in experiment [2]; 1000 to 10000 nM in experiment [3]; 10 to 100 nM in experiment [4]; more than 10000 nM in experiment [5]; 10 to 100 nM in experiment [6].

As for `C[C@@H]1[C@H](NC(=O)N(C)C2CC2)CCCN1c1cnc(C(N)=O)c(Nc2cnn(C)c2)n1` [Example D-314, 5-[(2R,3R)-3-{[cyclopropyl(methyl)carbamoyl]amino}-2-methylpiperidin-1-yl]-3-[(1-methyl-1H-pyrazol-4-yl)amino]pyrazine-2-carboxamide], the half-inhibitory concentration (IC50) was in the range of 1000 to 10000 nM in experiment [1]; 100 to 1000 nM in experiment [2]; 1000 to 10000 nM in experiment [3]; 10 to 100 nM in experiment [4]; 100 to 1000 nM in experiment [5]; 10 to 100 nM in experiment [6].

`Cc1cc2cc(C(=O)N[C@@H]3CCCN(c4cnc(C(N)=O)c(Nc5cnn(C)c5)n4)[C@@H]3C)ccc2o1` [Example D-246, 3-[(1-methyl-1H-pyrazol-4-yl)amino]-5-[(2R,3R)-2-methyl-3-(2-methyl-1-benzofuran-5-amido)piperidin-1-yl]pyrazine-2-carboxamide]: the IC50 is 1000 to 10000 nM in experiment [1]; 100 to 1000 nM in experiment [2]; 1000 to 10000 nM in experiment [3]; 10 to 100 nM in experiment [4]; 10 to 100 nM in experiment [5]; not above 10 nM in experiment [6].

For `C[C@@H]1[C@H](NC(=O)c2ccc(C(C)(C)C#N)cc2)CCCN1c1cnc(C(N)=O)c(Nc2ccc(OC3CCN(C)CC3)cc2)n1` [Example D-292, 5-[(2R,3R)-3-[4-(1-cyano-1-methylethyl)benzamido]-2-methylpiperidin-1-yl]-3-({4-[(1-methylpiperidin-4-yl)oxy]phenyl}amino)pyrazine-2-carboxamide], the IC50 in experiment [1] was 100 to 1000 nM; in experiment [2], 10 to 100 nM; in experiment [3], 1000 to 10000 nM; in experiment [4] it was 10 to 100 nM; in experiment [5], 10 to 100 nM; in experiment [6], not above 10 nM.

For the compound `C[C@@H]1[C@H](NC(=O)c2ccc(C3CC3)nc2)CCCN1c1cnc(C(N)=O)c(Nc2ccc(N3CCC(F)(F)CC3)cc2)n1` [Example D-305, 5-[(2R,3R)-3-(6-cyclopropylpyridine-3-amido)-2-methylpiperidin-1-yl]-3-{[4-(4,4-difluoropiperidin-1-yl)phenyl]amino}pyrazine-2-carboxamide], the IC50 in experiment [1] was 1000 to 10000 nM; in experiment [2], 100 to 1000 nM; in experiment [3] it was more than 10000 nM; in experiment [4] it was 10 to 100 nM; in experiment [5], 100 to 1000 nM; in experiment [6], 10 to 100 nM.

Take `C[C@@H]1[C@H](NC(=O)c2ccc(C(C)(C)C)cc2)CCCN1c1nnc(C(N)=O)c(Nc2cnn(C)c2)n1` [Example D-285, 3-[(2R,3R)-3-(4-tert-butylbenzamido)-2-methylpiperidin-1-yl]-5-[(1-methyl-1H-pyrazol-4-yl)amino]-1,2,4-triazine-6-carboxamide]: the IC50 was 1000 to 10000 nM in experiment [1]; 10 to 100 nM in experiment [2]; 100 to 1000 nM in experiment [3]; 10 to 100 nM in experiment [4]; 10 to 100 nM in experiment [5]; not above 10 nM in experiment [6].

With `C[C@@H]1[C@H](NC(=O)c2ccc(C3CC3)cc2)CCCN1c1cnc(C(N)=O)c(Nc2cnn(C)c2F)n1` [Example D-290, 5-[(2R,3R)-3-(4-cyclopropylbenzamido)-2-methylpiperidin-1-yl]-3-[(5-fluoro-1-methyl-1H-pyrazol-4-yl)amino]pyrazine-2-carboxamide], the IC50 was 1000 to 10000 nM in experiment [1]; more than 10000 nM in experiment [2]; more than 10000 nM in experiment [3]; 1000 to 10000 nM in experiment [4]; 1000 to 10000 nM in experiment [5]; 100 to 1000 nM in experiment [6].

Regarding `C[C@@H]1[C@H](NC(=O)c2ccc(C3CC3)cc2)CCCN1c1cnc(C(N)=O)c(Nc2cc(C3CCOCC3)ns2)n1` [Example D-310, 5-[(2R,3R)-3-(4-cyclopropylbenzamido)-2-methylpiperidin-1-yl]-3-{[3-(oxan-4-yl)-1,2-thiazol-5-yl]amino}pyrazine-2-carboxamide], the IC50 in experiment [1] was 1000 to 10000 nM; in experiment [2] it was 10 to 100 nM; in experiment [3] it was 100 to 1000 nM; in experiment [4], 10 to 100 nM; in experiment [5], 10 to 100 nM; in experiment [6], not above 10 nM.
